Measured values reported in patent US5668159A, “1,3,4-thiadiazoles and 1,3,4-oxadiazoles as IIb/IIIa antagonists” (The DuPont Merck Pharmaceutical Company, priority 1996, dated 1997).
Counter-ions that a name gives are not always drawn. Like-named read-outs stand apart in the source and are kept apart here.

Test system: platelet aggregation (platelet rich plasma (PRP))
Assay: Platelet Aggregation Assay (inhibition of agonist-induced platelet aggregation in platelet rich plasma)
Assay type: cell-based
Conditions: human PRP
Description: Platelet Aggregation Assay: Venous blood was obtained from the arm of a healthy human donor who was drug-free and aspirin-free for at least two weeks prior to blood collection. Blood was collected into 10 mL citrated Vacutainer tubes. The blood was centrifuged for 15 minutes at 150× g at room temperature, and platelet-rich plasma (PRP) was removed. The remaining blood was centrifuged for 15 minutes at 1500× g at room temperature, and platelet-poor plasma (PPP) was removed. Samples were assayed on a aggregometer (PAP-4 Platelet Aggregation Profiler), using PPP as the blank (100% transmittance). 200 μL of PRP was added to each micro test tube, and transmittance was set to 0%. 20 μL of various agonists (ADP, collagen, arachidonate, epinephrine, thrombin) were added to each tube, and the aggregation profiles were plotted (% transmittance versus time). The results are expressed as % inhibition of agonist-inducedplatelet aggregation. For the IC50 evaluation, the test compounds were added at various concentrations prior to the activation of the platelets.
Ester prodrugs were preincubated (10^-3 M F.C.) with 100 IU/mL Porcine liver esterase (Sigma Chemical Co., St. Louis, Mo., #E-3128) for 2 hours at 37° C. Aliquots are then diluted in 0.1M Tris, p H 7.4, to the desired concentrations. Aliquots of 20 μl of the esterase pretreated prodrugs are added to 200 μl of human platelet rich plasma. Samples were placed in platelet profiler (aggregometer) for 8 minutes at 37° C., followed by the addition of 100 μM Adenosine Diphosphate, (Sigma Chemical Co., St. Louis, Mo., #A-6521), to induce platelet aggregation. Platelet aggregation was allowed to proceed for 5 minutes. Percent inhibition is calculated using percent aggregation in the presence of the test compound divided by percent aggregation of control, times 100. This value is subtracted from 100, yielding percent inhibition. Calculation of IC50 is performed on a Texas Instruments TI59 with an IC50 program.
Table A below sets forth the antiplatelet activity of representative compounds of the present invention. The indicated compounds were tested for their ability to inhibit platelet aggregation (using platelet rich plasma (PRP)). The IC50 value (the concentration of antagonist which inhibits platelet aggregation by 50% relative to a control lacking the antagonist) is shown. In Table A the IC50 values are expressed as: +++=IC50 of <10 μM; ++=IC50 of […]; +=IC50 of 50-100 μM (μM=micromolar).

[1] = with esterase, ester prodrugs preincubated with 100 IU/mL porcine liver esterase 2 hours at 37° C., 100 μM ADP, read-out: Platelet Aggregation Assay IC50 (with esterase)
[2] = without esterase, read-out: Platelet Aggregation Assay IC50 (without esterase)

Row | Structure (SMILES) | IC50 [1] | IC50 [2]
1 | CCCCOC(=O)N[C@@H](CNC(=O)Cc1nnc(-c2ccc(C(=N)N)cc2)s1)C(=O)OC [Example 1, Methyl N^3-[2-{2-(4-amidinophenyl)-1,3,4-thiadiazol-5-yl}-acetyl]-N^2-(n-butyloxycarbonyl)-2,3-(S)-diaminopropionate TFA salt] | < 10 µM | 
2 | CCCCOC(=O)N[C@@H](CNC(=O)Cc1nnc(-c2ccc(C(=N)N)cc2)s1)C(=O)O [Example 2, N^3-[2-{2-(4-amidinophenyl)-1,3,4-thiadiazol-5-yl}-acetyl]-N^2-(n-butyloxycarbonyl)-2,3-(S)-diaminopropionic acid HCl salt] |  | < 10 µM
3 | COC(=O)[C@H](CNC(=O)Cc1nnc(-c2ccc(C(=N)N)cc2)s1)NS(=O)(=O)c1cccc(C)c1 [Example 25, Methyl N^3-[2-{2-(4-amidinophenyl)-1,3,4-thiadiazol-5-yl}-acetyl]-N^2-(3-methylphenylsulfonyl)-2,3-(S)-diaminopropionate TFA salt] | < 10 µM | 
4 | Cc1cccc(S(=O)(=O)N[C@@H](CNC(=O)Cc2nnc(-c3ccc(C(=N)N)cc3)s2)C(=O)O)c1 [Example 26, N^3-[2-{2-(4-amidinophenyl)-1,3,4-thiadiazol-5-yl}-acetyl]-N^2-(3-methylphenylsulfonyl)-2,3-(S)-diaminopropionic acid HCl salt] |  | < 10 µM
5 | CNC(=N)c1ccc(-c2nnc(CC(=O)NC[C@H](NS(=O)(=O)c3cccc(C)c3)C(=O)OC)s2)cc1 [Example 44, Methyl N^3-[2-{2-(4-N-methylamidinophenyl)-1,3,4-thiadiazol-5-yl}-acetyl]-N^2-(3-methylphenylsulfonyl)-2,3-(S)-diaminopropionate TFA salt] | < 10 µM | 
6 | CNC(=N)c1ccc(-c2nnc(CC(=O)NC[C@H](NS(=O)(=O)c3cccc(C)c3)C(=O)O)s2)cc1 [Example 63, N^3-[2-{2-(4-N-methylamidinophenyl)-1,3,4-thiadiazol-5-yl}-acetyl]-N^2-(3-methylphenylsulfonyl)-2,3-(S)-diaminopropionic acid HCl salt] |  | < 10 µM
7 | CCCCNC(=N)c1ccc(-c2nnc(CC(=O)NC[C@H](NS(=O)(=O)c3cccc(C)c3)C(=O)OC)s2)cc1 [Example 64, Methyl N^3-[2-{2-(4-N-n-butylamidinophenyl)-1,3,4-thiadiazol-5-yl}-acetyl]-N^2-(3-methylphenylsulfonyl)-2,3-(S)-diaminopropionate TFA salt] | < 10 µM | 
8 | CCCCNC(=N)c1ccc(-c2nnc(CC(=O)NC[C@H](NS(=O)(=O)c3cccc(C)c3)C(=O)O)s2)cc1 [Example 65, N^3-[2-{2-(4-N-n-butylamidinophenyl)-1,3,4-thiadiazol-5-yl}-acetyl]-N^2-(3-methylphenylsulfonyl)-2,3-(S)-diaminopropionic acid HCl salt] |  | < 10 µM
9 | COC(=O)[C@H](CNC(=O)Cc1nnc(-c2ccc(C(=N)N)cc2)s1)NS(=O)(=O)c1ccccc1C [Example 88, Methyl N^3-[2-{2-(4-amidinophenyl)-1,3,4-thiadiazol-5-yl}-acetyl]-N -(2-methylphenylsulfonyl)-2,3-(S)-diaminopropionate TFA salt] | < 10 µM | 
10 | Cc1ccccc1S(=O)(=O)N[C@@H](CNC(=O)Cc1nnc(-c2ccc(C(=N)N)cc2)s1)C(=O)O [Example 89, N^3-[2-{2-(4-amidinophenyl)-1,3,4-thiadiazol-5-yl}-acetyl]-N^2-(2-methylphenylsulfonyl)-2,3-(S)-diaminopropionate acid HCl salt] |  | < 10 µM
11 | COC(=O)[C@H](CNC(=O)Cc1nnc(-c2ccc(C(=N)N)cc2)s1)NS(=O)(=O)c1c(C)noc1C [Example 96, Methyl N^3-[2-{2-(4-amidinophenyl)-1,3,4-thiadiazol-5-yl}-acetyl]-N^2-(3,5-dimethylisoxazol-4-ylsulfonyl)-2,3-(S)-diaminopropionate TFA salt] | < 10 µM | 
12 | Cc1noc(C)c1S(=O)(=O)N[C@@H](CNC(=O)Cc1nnc(-c2ccc(C(=N)N)cc2)s1)C(=O)O [Example 97, N^3-[2-{2-(4-amidinophenyl)-1,3,4-thiadiazol-5-yl}-acetyl]-N^2-(3,5-dimethylisoxazol-4-ylsulfonyl)-2,3-(S)-diaminopropionic acid HCl salt] |  | < 10 µM
13 | COC(=O)[C@H](CNC(=O)CCCc1nnc(C2CCNCC2)s1)NS(=O)(=O)c1cccc(C)c1 [Example 133, Methyl N^3-[4-{2-(4-piperidinyl)-1,3,4-thiadiazol-5-yl}-butyryl]-N^2-(3-methylphenylsulfonyl)-2,3-(S)-diaminopropionate TFA salt] | < 10 µM | 
14 | Cc1cccc(S(=O)(=O)N[C@@H](CNC(=O)CCCc2nnc(C3CCNCC3)s2)C(=O)O)c1 [Example 134, N^3-[4-{2-(4-piperidinyl)-1,3,4-thiadiazol-5-yl}-butyryl]-N^2-(3-methylphenylsulfonyl)-2,3-(S)-diaminopropionic acid TFA salt] |  | < 10 µM
15 | COC(=O)[C@H](CNC(=O)Cc1nnc(-c2ccc(NC(=N)N)cc2)s1)NS(=O)(=O)c1cccc(C)c1 [Example 145, Methyl N^3-[2-{2-(4-guanidinophenyl)-1,3,4-thiadiazol-5-yl}-acetyl]-N^2-(3-methylphenylsulfonyl)-2,3-(S)-diaminopropionate TFA salt] | < 10 µM | 
16 | Cc1cccc(S(=O)(=O)N[C@@H](CNC(=O)Cc2nnc(-c3ccc(NC(=N)N)cc3)s2)C(=O)O)c1 [Example 146, N^3-[2-{2-(4-guanidinophenyl)-1,3,4-thiadiazol-5-yl}-acetyl]-N^2-(3-methylphenylsulfonyl)-2,3-(S)-diaminopropionic acid TFA salt] |  | < 10 µM
17 | COC(=O)[C@H](CNC(=O)Cc1nnc(-c2ccc(C(N)=O)cc2)s1)NS(=O)(=O)c1cccc(C)c1 [Example 170, Methyl N^3-[2-{2-(4-amidophenyl)-1,3,4-thiadiazol-5-yl}-acetyl]-N^2-(3-methylphenylsulfonyl)-2,3-(S)-diaminopropionate] | 50 to 100 µM | 
18 | Cc1cccc(S(=O)(=O)N[C@@H](CNC(=O)Cc2nnc(-c3ccc(C(N)=O)cc3)s2)C(=O)O)c1 [Example 171, N^3-[2-{2-(4-Amidophenyl)-1,3,4-thiadiazol-5-yl}-acetyl]-N^2-(3-methylphenylsulfonyl)-2,3-(S)-diaminopropionic acid] |  | < 10 µM
19 | CCCCOC(=O)N[C@@H](CNC(=O)CSc1nnc(-c2ccc(C(=N)N)cc2)s1)C(=O)OC [Example 192, Methyl N^3-[2-{2-(4-amidinophenyl)-1,3,4-thiadiazol-5-ylthio}acetyl]-N^2-(n-butoxycarbonyl)-2,3-(S)-diaminopropionate HCl salt] | < 10 µM | 
20 | CCCCOC(=O)N[C@@H](CNC(=O)CSc1nnc(-c2ccc(C(=N)N)cc2)s1)C(=O)O [Example 193, N^3-[2-{2-(4-Amidinophenyl)-1,3,4-thiadiazol-5-ylthio}acetyl]-N^2-(n-butoxycarbonyl)-2,3-(S)-diaminopropionic acid HCl salt] |  | < 10 µM
21 | CCCCOC(=O)N[C@@H](CNC(=O)CSc1nnc(-c2ccc(NC(=N)N)cc2)o1)C(=O)OC [Example 242, Methyl N^3-[2-{2-(4-guanidinophenyl)-1,3,4-oxadiazol-5-ylthio}acetyl]-N^2-(n-butoxycarbonyl)-2,3-(S)-diaminopropionate TFA salt] | 10 to 50 µM | 
22 | CCCCOC(=O)N[C@@H](CNC(=O)CSc1nnc(-c2ccc(C(=N)N)cc2)o1)C(=O)OC [Example 258, Methyl N^3-[2-{2-(4-amidinophenyl)-1,3,4-oxadiazol-5-ylthio}-acetyl]-N^2-(n-butyloxycarbonyl)-2,3-(S)-diamino propionate HCl salt] | < 10 µM | 
23 | CCCCOC(=O)N[C@@H](CNC(=O)Cc1nnc(-c2ccc(C(=N)N)cc2)o1)C(=O)OC [Example 318, Methyl N^3-[2-{2-(4-amidinophenyl)-1,3,4-oxadiazol-5-yl}-acetyl]-N-^2-(n-butyloxycarbonyl)-2,3-(S)-diaminopropionate TFA salt] | 50 to 100 µM | 
24 | CCCCOC(=O)N[C@@H](CNC(=O)Cc1nnc(-c2ccc(NC(=N)N)cc2)o1)C(=O)OC [Example 335, Methyl N^3-[2-{2-(4-guanidinophenyl)-1,3,4-oxadiazol-5-yl}-acetyl]-N2-(n-butyloxycarbonyl)-2,3-(S)-diaminopropionate TFA salt] | < 10 µM | 
25 | COC(=O)[C@H](Cc1ccccc1)NC(=O)CSc1nnc(-c2ccc(NC(=N)N)cc2)o1 [Example 392, Methyl N-[2-{2-(4-guanidinophenyl)-1,3,4-oxadiazol-5-ylthio}-acetyl]-(S)-phenylalanine TFA salt] | 10 to 50 µM | 
